Laboratory results published in patent publication US20260265262A1, “CDK2 INHIBITORS AND METHODS OF USING THE SAME” (Cedilla Therapeutics, Inc., priority 2022, published 2026).

Key:
CDK2/Cyclin E1 = CDK2/Cyclin E1 (Homo sapiens, UniProt P24941); experiment: ADP-Glo Luminescent Kinase Assay (CDK2/E1-37C); type: biochemical; settings: 0.18 nM CDK2/Cyclin E1, 100 μM ATP, 1.5 μM Histone H1, 37° C., 60 min pre-incubation; read-out: ADPGLO (CDK2/E1-37C): IC50
Procedure: Inhibition of CDK2/Cyclin E1 activity by the presence of small molecules was evaluated using ADP-Glo Luminescent Kinase Assay (Promega). Activated CDK2/Cyclin E1 was incubated with its substrate Histone H1 (SignalChem H10-54N) in the kinase reaction buffer (100 μM ATP, 50 mM HEPES pH 7.5, 10 mM MgCl2, 1 mM EDTA, 2 mM DTT, 0.01% Brij35, 0.5 mg/mL BSA). Luminescence was recorded with an Envision plate reader (PerkinElmer).
Dose titrations of inhibitors in 100% DMSO were combined with 0.36 nM CDK2/Cyclin E1 in reaction buffer. The mixtures were incubated for 60 minutes at 37° C. before the addition of ATP and Histone H1 substrate to initiate the kinase reaction. The final conditions were 0.18 nM CDK2/Cyclin E1, 100 μM ATP, and 1.5 μM Histone H1. The reactions were incubated at 37° C. for 90 minutes before being stopped with the addition of ADP-Glo reagent. This mixture was incubated at room temperature for 60 minutes before Kinase Detection Solution is added to generate luminescence. The stopped reactions were analyzed on an Envision plate reader. The conversion ratios were normalized to yield % activity, plotted against compound concentration, and fit to a four-parameter equation to determine the IC50 for each compound.

Kuramochi cells = experiment: IncuCyte cell proliferation assay; type: cell-based; settings: Kuramochi cells labeled with mApple-H2B, cell count 0 to 72 hours, 20 μM top concentration; read-out: IncuCyte Kuramochi RB-WT: IC50
Procedure: IncuCyte® assay was used to measure the effect of disclosed compounds on cell proliferation. Fluorescent microscopy images of cells were taken immediately after compound treatment and 72 hours later. Image analysis software was used to obtain cell counts as a function of compound concentration. Kuramochi cells labeled with mApple-H2B were seeded on 384-well assay-ready plates. Plates were placed in an IncuCyte® (Sartorius) and scanned at 0 and 72 hours. IncuCyte® software was used to count the number of fluorescent nuclei in each well. The fold change in cell count from 0 to 72 hours in wells treated with increasing compounds concentrations (10 pts, 1/2 log dilution, 20 μM top concentration) was normalized to DMSO control wells. The normalized cell counts were fit with dose response curves and a […] was calculated.

Structure (SMILES)	IC50 (CDK2/Cyclin E1)	IC50 (Kuramochi cells)
C[C@@H](OCC1CCOCC1)[C@H](NC(=O)C1CN(C(=O)c2cnn(Cc3ccc(C(F)(F)F)cc3)c2)CC12CN(C(=O)C1(C(F)(F)F)CC1)C2)C(=O)N1CCC(c2ccc(C(=O)O)cc2)CC1 (stereo in doubt) [I-64 2nd, 4-(1-(O-((tetrahydro-2H-pyran-4-yl)methyl)-N—((S)-6-(1-(4-(trifluoromethyl)benzyl)-1H-pyrazole-4-carbonyl)-2-(1-(trifluoromethyl)cyclopropane-1-carbonyl)-2,6-diazaspiro[3.4]octane-8-carbonyl)-L-threonyl)piperidin-4-yl)benzoic acid]	> 10000 nM	> 20 µM
Cc1oc(=O)oc1COC(=O)C(C)(C)CNC(=O)[C@@H](NC(=O)[C@@H]1CN(C(=O)c2cnn(Cc3ccccc3)c2)CC12CN(C(=O)[C@H]1CC1(C)C)C2)[C@@H](C)OCC1CCCCC1 [Example I-32, (5-methyl-2-oxo-1,3-dioxol-4-yl)methyl 3-((2S,3R)-2-((S)-6-(1-benzyl-1H-pyrazole-4-carbonyl)-2-((S)-2,2-dimethylcyclopropane-1-carbonyl)-2,6-diazaspiro[3.4]octane-8-carboxamido)-3-(cyclohexylmethoxy)butanamido)-2,2-dimethylpropanoate]	< 500 nM	5 to 20 µM
C[C@@H](OCC12CCC(CC1)OC2)[C@H](NC(=O)[C@@H]1CN(C(=O)c2cnn(Cc3ccc(C(F)(F)F)cc3)c2)CC12CN(C(=O)C1(C(F)(F)F)CC1)C2)C(=O)NCCc1nnn[nH]1 [Example I-16]	5000 to 10000 nM	> 20 µM
CC1(C)C[C@@H]1C(=O)N1CC2(CN(C(=O)c3cncs3)C[C@H]2C(=O)N2CCC[C@@H](N(CC(=O)NS(C)(=O)=O)CC3CCCCC3)C2)C1 [Example I-70, 2-((cyclohexylmethyl)((R)-1-((S)-2-((S)-2,2-dimethylcyclopropane-1-carbonyl)-6-(thiazole-5-carbonyl)-2,6-diazaspiro[3.4]octane-8-carbonyl)piperidin-3-yl)amino)-N-(methylsulfonyl)acetamide]	> 10000 nM	> 20 µM
COC(=O)C(C)(C)Oc1ccc(C2CCN(C(=O)[C@@H](NC(=O)[C@@H]3CN(C(=O)c4cnn(Cc5ccc(C(F)(F)F)cc5)c4)CC34CN(C(=O)C3(C(F)(F)F)CC3)C4)[C@@H](C)OCC34CCC(CC3)OC4)CC2)cc1C(F)(F)F [Example I-98]	> 10000 nM	> 20 µM
CNC(=O)C(C)(C)CNC(=O)[C@@H](NC(=O)[C@@H]1CN(C(=O)c2cnn(Cc3ccccc3)c2)CC12CN(C(=O)[C@H]1CC1(C)C)C2)[C@@H](C)OCC1CCCCC1 [Example I-37, (S)-6-(1-benzyl-1H-pyrazole-4-carbonyl)-N-((2S,3R)-3-(cyclohexylmethoxy)-1-((2,2-dimethyl-3-(methylamino)-3-oxopropyl)amino)-1-oxobutan-2-yl)-2-((S)-2,2-dimethylcyclopropane-1-carbonyl)-2,6-diazaspiro[3.4]octane-8-carboxamide]	< 500 nM	5 to 20 µM
C[C@@H](OCC12CCC(CC1)OC2)[C@H](NC(=O)[C@@H]1CN(C(=O)c2cnn(Cc3ccccc3C(=O)O)c2)CC12CN(C(=O)C1(C(F)(F)F)CC1)C2)C(=O)N1CCNC2(CC2)C1 [Example I-112, 2-((4-((S)-8-(((2S,3R)-3-((2-oxabicyclo[2.2.2]octan-4-yl)methoxy)-1-oxo-1-(4,7-diazaspiro[2.5]octan-7-yl)butan-2-yl)carbamoyl)-2-(1-(trifluoromethyl)cyclopropane-1-carbonyl)-2,6-diazaspiro[3.4]octane-6-carbonyl)-1H-pyrazol-1-yl)methyl)benzoic acid]	< 500 nM	> 20 µM
C[C@@H](OCC12CCC(CC1)OC2)[C@H](NC(=O)[C@@H]1CN(C(=O)c2cnc(O)cn2)CC12CN(C(=O)[C@H]1CC1(C)C)C2)C(=O)N1CCC(c2ccc(C(F)(F)F)cc2C(=O)O)CC1 [Example I-10]	< 500 nM	> 20 µM
COC(=O)CCNC(=O)[C@@H](NC(=O)[C@@H]1CN(C(=O)c2cnn(Cc3ccc(F)cc3)c2)CC12CN(C(=O)C1(C(F)(F)F)CC1)C2)[C@@H](C)OCC12CCC(CC1)OC2 [Example I-111, Methyl 3-((2S,3R)-3-((2-oxabicyclo[2.2.2]octan-4-yl)methoxy)-2-((S)-6-(1-(4-fluorobenzyl)-1H-pyrazole-4-carbonyl)-2-(1-(trifluoromethyl)cyclopropane-1-carbonyl)-2,6-diazaspiro[3.4]octane-8-carboxamido)butanamido)propanoate]	< 500 nM	> 20 µM
C[C@@H](OCC1CCCCC1)[C@H](NC(=O)[C@@H]1CN(C(=O)c2cnn(Cc3ccccc3)c2)CC12CN(C(=O)[C@H]1CC1(C)C)C2)C(=O)NS(=O)(=O)c1ccc(F)cc1F [Example I-26, (S)-6-(1-benzyl-1H-pyrazole-4-carbonyl)-N-((2S,3R)-3-(cyclohexylmethoxy)-1-((2,4-difluorophenyl)sulfonamido)-1-oxobutan-2-yl)-2-((S)-2,2-dimethylcyclopropane-1-carbonyl)-2,6-diazaspiro[3.4]octane-8-carboxamide]	< 500 nM	0.5 to 5 µM

Further lines, with some results ahead:

IC50 (CDK2/Cyclin E1)	Structure (SMILES)	IC50 (Kuramochi cells)
< 500 nM	C[C@@H](OCC12CCC(CC1)OC2)[C@H](NC(=O)[C@@H]1CN(C(=O)c2cnn(Cc3ccc(C(F)(F)F)cc3)c2)CC12CN(C(=O)C1(C(F)(F)F)CC1)C2)C(=O)N1CCC(c2ccccc2C(=O)O)CC1 [Example I-3, 2-(1-(O-((2-oxabicyclo[2.2.2]octan-4-yl)methyl)-N—((S)-6-(1-(4-(trifluoromethyl)benzyl)-1H-pyrazole-4-carbonyl)-2-(1-(trifluoromethyl)cyclopropane-1-carbonyl)-2,6-diazaspiro[3.4]octane-8-carbonyl)-L-threonyl)piperidin-4-yl)benzoic acid]	0.5 to 5 µM
< 500 nM	COC(=O)c1c(F)cc(C2CCN(C(=O)[C@@H](NC(=O)[C@@H]3CN(C(=O)c4cnn(Cc5ccc(C(F)(F)F)cc5)c4)CC34CN(C(=O)C3(C(F)(F)F)CC3)C4)[C@@H](C)OCC34CCC(CC3)OC4)CC2)cc1F (stereo in doubt) [Example I-2]	0.5 to 5 µM
< 500 nM	C[C@@H](OCC12CCC(CC1)OC2)[C@H](NC(=O)[C@@H]1CN(C(=O)c2cnn(Cc3ccccc3C(=O)OC(C)(C)C)c2)CC12CN(C(=O)C1(C(F)(F)F)CC1)C2)C(=O)NCCC1CCN(C(=O)OC(C)(C)C)CC1 [Example I-103]	0.5 to 5 µM
5000 to 10000 nM	C[C@@H](OCC12CCC(CC1)OC2)[C@H](NC(=O)[C@@H]1CN(C(=O)c2cnn(Cc3ccc(C(F)(F)F)cc3)c2)CC12CN(C(=O)C1(C(F)(F)F)CC1)C2)C(=O)NCCC(=O)O [Example I-75]	> 20 µM
< 500 nM	C[C@@H](OCC1CCOCC1)[C@H](NC(=O)[C@@H]1CN(C(=O)c2cnc(O)cn2)CC12CN(C(=O)C1(C(F)(F)F)CC1)C2)C(=O)N1CCC(C(F)(F)F)CC1 [Example I-78, (S)-6-(5-hydroxypyrazine-2-carbonyl)-N-((2S,3R)-1-oxo-3-((tetrahydro-2H-pyran-4-yl)methoxy)-1-(4-(trifluoromethyl)piperidin-1-yl)butan-2-yl)-2-(1-(trifluoromethyl)cyclopropane-1-carbonyl)-2,6-diazaspiro[3.4]octane-8-carboxamide]	> 20 µM
